Results published in PubChem BioAssay (NCI).
Values joined by “and” are separate entries in the source; they are usually repeats but may differ in a detail not shown here. Identical values can stand only once.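 Compound exposure: 48 hours, 5 concentrations, 96-well plates. GI50: concentration for 50% inhibition of growth. TGI: total growth inhibition.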

How the values were obtained:
Test in all cases: DTP human tumour cell line panel, 48 h
ACHN renal = test system: ACHN renal
CAKI-1 renal = test system: CAKI-1 renal
DU-145 prostate = test system: DU-145 prostate
HOP-62 NSCLC = test system: HOP-62 NSCLC
MDA-MB-231 breast = test system: MDA-MB-231 breast
NCI-H23 lung = test system: NCI-H23 lung
NCI-H522 lung = test system: NCI-H522 lung
RPMI-8226 leukemia = test system: RPMI-8226 leukemia
TK-10 renal = test system: TK-10 renal
M14 melanoma = test system: M14 melanoma

Structure (SMILES) | GI50 (ACHN renal) [µM] | TGI (ACHN renal) [µM] | GI50 (CAKI-1 renal) [µM] | TGI (CAKI-1 renal) [µM] | GI50 (DU-145 prostate) [µM] | TGI (DU-145 prostate) [µM] | GI50 (HOP-62 NSCLC) [µM] | TGI (HOP-62 NSCLC) [µM] | GI50 (MDA-MB-231 breast) [µM] | TGI (MDA-MB-231 breast) [µM] | GI50 (NCI-H23 lung) [µM] | TGI (NCI-H23 lung) | GI50 (NCI-H522 lung) [µM] | TGI (NCI-H522 lung) | GI50 (RPMI-8226 leukemia) [µM] | TGI (RPMI-8226 leukemia) | GI50 (TK-10 renal) [µM] | TGI (TK-10 renal) [µM] | TGI (M14 melanoma) [µM] | GI50 (M14 melanoma) [µM]
N#Cc1c2ccccc2c2nnc3ccc(C(F)(F)F)cc3n12 | 27.3 | > 100 | 43.7 | > 100 | 28 | > 100 | > 100 | > 100 | 88.1 | > 100 | 33.5 | > 100 µM | 17 | 68.1 µM | 29.4 | > 100 µM | 23 | > 100 | – | –
CCC(C)(C)[C@H](NC(=O)[C@H]1CCCCN1C)C(=O)N(C)[C@H](C[C@@H](OC(C)=O)c1nc(C(=O)N[C@@H](Cc2ccccc2)C[C@H](C)C(=O)O)cs1)C(C)C | < 0.00167 | > 16.7 | < 0.00167 | > 16.7 | < 0.00167 | – | < 0.00167 | > 16.7 | < 0.00167 | – | < 0.00167 | > 16.7 µM | < 0.00167 | 0.00583 µM | < 0.00167 | > 16.7 µM | 0.253 | > 16.7 | – | –
O=c1c(O)cc2c(O)oc3c(=O)c(O)c(O)c4c(O)oc1c2c43 | – | > 100 | – | > 100 | – | – | – | > 100 | – | – | – | > 100 µM | – | > 100 µM | – | > 100 µM | – | > 100 | > 100 | –
CC(=O)OCC1OC([Se-])C(OC(C)=O)C(OC(C)=O)C1OC(C)=O.N#CCC[PH+](CCC#N)CCC#N.[Au+] (stereo unspecified) | 7.06 | 39.4 | 16.2 | 55.6 | – | – | 25.2 | 68.8 | – | – | 4.55 | 23.1 µM | 5.75 | 40.8 µM | 3.09 | 14.4 µM | 14.2 | 46.9 | 18.3 | 3.63
O=C(Cc1ccccc1)N/N=C(/c1nc2ccc([N+](=O)[O-])cc2[nH]c1=O)C(O)c1ccccc1Cl (stereo unspecified) | – | > 100 | – | > 100 | – | – | – | > 100 | – | – | – | > 100 µM | – | > 100 µM | – | > 100 µM | – | > 100 | > 100 | –
Cc1ccc(NC(=O)/C(=N\NC(N)=S)C(C#N)c2ccccc2C)cc1C (stereo unspecified) | – | > 100 | – | > 100 | – | – | – | > 100 | – | – | – | > 100 µM | – | > 100 µM | – | > 100 µM | – | > 100 | > 100 | –
O=C(N/C=C/C=C/Sc1ccccc1)OCc1ccccc1 | – | 68.9 | – | 37.2 | – | – | – | 49.2 | – | – | – | 48.9 µM | – | 29.7 µM | – | > 100 µM | – | 64.7 | 32.9 | –
CCOC(=O)Nc1ccc2c(c1)N(C(=O)CCN(CC)CC)c1ccccc1S2 | – | > 95.5 | 11.4 | 30.6 | – | – | 44.2 | 134 | – | 95.1 | 36.4 | > 90.5 µM and 114 µM | 17 | 37.1 µM and 167 µM | 13 | 51 µM and 47.5 µM | – | 76.6 | 48.6 | –
